The results in this text go back to patent US20260317304A1, “TEAD INHIBITORS AND METHODS OF USE” (Sporos BioDiscovery, Inc., priority 2022, published 2026).

As usually defined, the EC50 is the concentration at which the effect is half-maximal. A high value points to a less potent agent. The IC50 is the concentration at which inhibition is half-maximal.

The test system of assay [1] is NCI-H226 cells. In words: Proliferation and cell viability assay, CellTiter-Glo 2.0 (CTG). Format: cell-based, human. As to conditions: 144 hrs. On the procedure:
(§1) Cell proliferation of a TEAD dependent NF2-null mesothelioma cell line, NCI-H226 was assayed using two different protocols. Results were confirmed in two different TEAD-non-dependent lung cancer cell lines, H23 and H28, were used as non-responsive controls, as indicated:
a) CellTiter-Glo® 2.0 (Promega #G9243). The effect of the TEAD inhibitors disclosed herein on cell proliferation was determined in TEAD1-genetically dependent cell line NCI-H226 (responder cell line) and TEAD-independent cell lines (NCI-H23, HEK293T), as non-responder, negative control. Cells were seeded in 96-well plates (Thermo Scientific #167008) in growth media (RPMI-1640, Gibco #61870-010) for NCI-H226 and NCI-H23 or DMEM (Gibco #31966-021, HEK293T) with […] Heat Inactivated Fetal Bovine Serum (Gibco 10500-064) at 800 (NCI-H226 and HEK-293T) or 2000 (NCI-H23) cells per well at 37° C., […], humidified incubator; 24 hours later, fresh growth media containing test compound or DMSO vehicle was added and incubated with the cells for 144 hrs. TEAD inhibitor stocks were made at a 1000× fold excess in DMSO, and a dose response test compound dose range of 10,000 to 0.1 nM was used. Each treatment was carried out in triplicate. After 144 hrs of treatment, relative cell viability numbers were determined using the CellTiter-Glo 2.0 assay following the manufacturer's instructions. Test plates and CellTiter-Glo 2.0 reagent were allowed to equilibrate to room temperature. CellTiter-Glo 2.0 reagent was added at 1:1 reagent to media ratio to the 96-well cell plates, plates were placed on a plate shaker for 2 minutes and then incubated at room temperature for a further 10 minutes to allow complete cell lysis to occur. The mix was then transferred to white, 96-well luminometer assay plates (Greiner Bio One #655075). Luminescence was quantified using a CLARIOStar Plus multi-mode plate reader (BMG Labtech) in luminescence detection mode with the recommended settings (ultra-Glo pre-set: emission 545-50 nm with autofocus and enhanced dynamic range on). Relative cell density was expressed as a function of inhibitor concentration, with respect to DMSO-only control wells. Data where plotted using GraphPad Prism and IC50 values for the biological effect were calculated using the EC50 non-linear fit function using a sigmoidal, 4-parameter logistic, least squares fit with no constraints.
(§2) For IC50 and EC50 data “A” indicates a value of less than 0.2 μM; the symbol “B” indicates a value in the range of from 0.2 μM up to 1 μM; and the symbol “C” indicates a value of greater than 1 μM. ND: no data.

Assay [2] relates to NCI-H226 cells. The assay is described as follows: Proliferation and cell viability assay, Cell Titer One. Format: cell-based, human. As to conditions: Cell Titer One assay, 6 days. On the procedure:
as §1
b) Cell Titer One (Promega, #G3582). The effect of the TEAD inhibitors disclosed herein on cell proliferation was also determined using the Promega Substrate Cell Titer Aqueous One Solution Reagent. The TEAD inhibitors were evaluated for the effects on cell proliferation responder (H226) and non-responder negative control cancer cell lines (CAMA1, H28), as well as non-transformed normal human cells (HUVEC, NHDF). Dissociated cells were resuspend in media (depending on cell line, either in DMEM, RPMI, or EMEM all with 10% FBS, with gentamicin as an antibiotic). Cells were seeded at 100 μL/well at 750 cells per well in 96-well plates and allowed to settle and attach. After an incubation of 24 hrs (37° C., 5% CO2, humidified incubator), 100 μL of test compound-containing media was added. A dilution series of 2000× concentrated stock of test compounds was prepared in DMSO, for final concentrations from 0.1 to 10,000 nM. After addition of test compound-containing media, cells were incubated for 6 days at 37° C., 5% CO2, humidified incubators). To measure cell density, 20 μL of Promega Substrate Cell Titer 96 Aqueous One Solution Reagent (Promega, #G3582) to each well was added according to the manufacturer's instructions. Plates were incubated at 37° C. for usually 3-8 hrs, to reach in the control cells (without compound) an OD of 1.5 at 490 nm. The OD was measured using Vmax [Molecular Devices] spectrophotometer plate reader. Media only-wells were used as background controls and cell densities normalized to DMSO vehicle control. EC50 were taken as the concentration achieving 50% of maximal growth inhibition.
as §2

The mark [3] stands for this setting: Homo sapiens, NCI-H226, responder cell line.

As to `Cn1cnc(-c2cc(C3(C)CCNC3=O)ccc2Nc2cccc(C(F)(F)F)c2)c1` (centres unmarked) [Compound 22, 3-methyl-3-(3-(1-methyl-1H-imidazol-4-yl)-4-((3-(trifluoromethyl)phenyl)amino)phenyl) pyrrolidin-2-one], in the assay with NCI-H226 cells [1] (setting [3]), the concentration for a half-maximal effect (EC50) was less than 200 nM.
As to `Cn1cnc(-c2cc(C3(C)NC(=O)NC3=O)ccc2Nc2ccc(C(F)(F)F)cc2)c1` (single isomer, unassigned) [Compound 14, 5-methyl-5-(3-(1-methyl-1H-imidazol-4-yl)-4-((4-(trifluoromethyl)phenyl)amino)phenyl)imidazolidine-2,4-dione], the half-maximal effective concentration (EC50) in the assay on NCI-H226 cells [1] (setting [3]) was less than 200 nM. The compound also came in with a half-inhibitory concentration (IC50) in the assay with NCI-H226 cells [2] greater than 1000 nM.
For the compound `CC1(c2ccc(Nc3ccc(C(F)(F)F)cc3)c(-c3cnccn3)c2)CCNC1=O` (centres unmarked) [Compound 13, 3-methyl-3-(3-(pyrazin-2-yl)-4-((4-(trifluoromethyl)phenyl)amino)phenyl) pyrrolidin-2-one], the concentration for a half-maximal effect (EC50) with NCI-H226 cells [1] (setting [3]) was less than 200 nM. Further, the IC50 with NCI-H226 cells [2] (Homo sapiens, NCI-H226, 144 h) was greater than 1000 nM.
The compound `CC(=O)c1ccc(Nc2ccc(C(F)(F)F)cc2)c(-c2cn(C)cn2)c1` [Compound 23, 1-(3-(1-methyl-1H-imidazol-4-yl)-4-((4-(trifluoromethyl)phenyl)amino)phenyl) ethan-1-one] showed an EC50 with NCI-H226 cells [1] (setting [3]) of less than 200 nM.
On the same count and under the same terms, the same measure for `Cn1cnc(-c2cc(C3(C)C(=O)NCC3O)ccc2Nc2ccc(C(F)(F)F)cc2)c1` (centres unmarked) [Compound 19, 4-hydroxy-3-methyl-3-(3-(1-methyl-1H-imidazol-4-yl)-4-((4-(trifluoromethyl)phenyl)amino)phenyl) pyrrolidin-2-one]: 200 to 1000 nM.
For `Cc1nnc(-c2cc(C3(C)CCNC3=O)ccc2Nc2ccc(C(F)(F)F)cc2)o1` (single isomer, unassigned) [Compound 8, 3-methyl-3-(3-(5-methyl-1,3,4-oxadiazol-2-yl)-4-((4-(trifluoromethyl)phenyl)amino)phenyl) pyrrolidin-2-one], the EC50 in the assay with NCI-H226 cells [1] (setting [3]) was less than 200 nM. This compound returned a half-inhibitory concentration (IC50) with NCI-H226 cells [2] (Homo sapiens, NCI-H226, 144 h) of 200 to 1000 nM.
In the assay with NCI-H226 cells [1] (responder cell line), `Cn1cnc(-c2cc([C@@]3(C)C(=O)CNC3=O)ccc2Nc2ccc(C(F)(F)F)cc2)c1` (stereo in doubt) [Compound 18, 3-methyl-3-(3-(1-methyl-1H-imidazol-4-yl)-4-((4-(trifluoromethyl)phenyl)amino)phenyl) pyrrolidine-2,4-dione] displayed a concentration giving a half-maximal response (EC50) of less than 200 nM.
For the compound `Cn1cnc(-c2cc([C@@]3(C)CCNC3=O)ccc2Nc2ccc(C(F)(F)F)cc2)c1` (single isomer, unassigned) [Compound 6, 3-methyl-3-(3-(1-methyl-1H-imidazol-4-yl)-4-((4-(trifluoromethyl)phenyl)amino)phenyl)pyrrolidin-2-one], the concentration giving a half-maximal response (EC50) with NCI-H226 cells [1] (responder cell line) is less than 200 nM. The same compound yielded a 50% inhibitory concentration (IC50) with NCI-H226 cells [2] of 200 to 1000 nM.
The compound `Cn1cnc(-c2cc(C3(C)NC(=O)NC3=O)ccc2Nc2ccc(C(F)(F)F)cc2)c1` (racemic) [Compound 9, 5-methyl-5-(3-(1-methyl-1H-imidazol-4-yl)-4-((4-(trifluoromethyl)phenyl)amino)phenyl) imidazolidine-2,4-dione] yielded an EC50 in the assay with NCI-H226 cells [1] (setting [3]) of less than 200 nM. For the same compound, the IC50 in the assay on NCI-H226 cells [2] (Homo sapiens, NCI-H226, 144 h) was less than 200 nM.
Take `Cn1cnc(-c2cc(C3(C)C(=O)CNC3=O)ccc2Nc2ccc(C(F)(F)F)cc2)c1` (racemic) [Compound 16, 3-methyl-3-(3-(1-methyl-1H-imidazol-4-yl)-4-((4-(trifluoromethyl)phenyl)amino)phenyl) pyrrolidine-2,4-dione]: in the assay on NCI-H226 cells [1] (setting [3]), the EC50 was less than 200 nM.
In the assay with NCI-H226 cells [1] (setting [3]), `Cn1cnc(-c2cc(CN3CC(=O)NC3=O)ccc2Nc2ccc(C(F)(F)F)cc2)c1` [Compound 4, 1-(3-(1-methyl-1H-imidazol-4-yl)-4-((4-(trifluoromethyl)phenyl)amino)benzyl) imidazolidine-2,4-dione] registered an EC50 of less than 200 nM. In the assay with NCI-H226 cells [2] (Homo sapiens, NCI-H226, 144 h), this compound came in with an IC50 of less than 200 nM.
In the case of `Cc1nnc(-c2cc([C@@]3(C)CCNC3=O)ccc2Nc2ccc(C(F)(F)F)cc2)o1` (single isomer, unassigned) [Compound 7, 3-methyl-3-(3-(5-methyl-1,3,4-oxadiazol-2-yl)-4-((4-(trifluoromethyl)phenyl)amino)phenyl) pyrrolidin-2-one], the concentration giving a half-maximal response (EC50) with NCI-H226 cells [1] (setting [3]) lay within 200 to 1000 nM. This compound had an IC50 in the assay on NCI-H226 cells [2] (Homo sapiens, NCI-H226, 144 h) of less than 200 nM.
For `CC1(c2ccc(Nc3ccc(C(F)(F)F)cc3)c(-c3cccnn3)c2)CCNC1=O` (centres unmarked) [Compound 12, 3-methyl-3-(3-(pyridazin-3-yl)-4-((4-(trifluoromethyl)phenyl)amino)phenyl) pyrrolidin-2-one] the same measures were less than 200 nM and greater than 1000 nM.
For `CC1(c2ccc(Nc3ccc(C(F)(F)F)cc3)c(-c3ncco3)c2)CCNC1=O` (centres unmarked) [Compound 10, 3-methyl-3-(3-(oxazol-2-yl)-4-((4-(trifluoromethyl)phenyl)amino)phenyl) pyrrolidin-2-one] the same measures were less than 200 nM and less than 200 nM.
`CC1(c2ccc(Nc3ccc(C(F)(F)F)cc3)c(Br)c2)CCNC1=O` (centres unmarked) [Compound 24] registered an EC50 with NCI-H226 cells [1] (setting [3]) of less than 200 nM.
Still for that read-out and setting: the same measure for `Cn1cnc(-c2cc([C@@]3(C)C(=O)CNC3=O)ccc2Nc2ccc(C(F)(F)F)cc2)c1` (stereo in doubt) [Compound 17, 3-methyl-3-(3-(1-methyl-1H-imidazol-4-yl)-4-((4-(trifluoromethyl)phenyl)amino)phenyl) pyrrolidine-2,4-dione]: less than 200 nM.
Consider `Cn1nnc(-c2cc(C3(C)CCNC3=O)ccc2Nc2ccc(C(F)(F)F)cc2)n1` (racemic) [Compound 11, 3-methyl-3-(3-(2-methyl-2H-tetrazol-5-yl)-4-((4-(trifluoromethyl)phenyl)amino)phenyl) pyrrolidin-2-one], for which the half-maximal effective concentration (EC50) in the assay on NCI-H226 cells [1] (setting [3]) was less than 200 nM. Besides, the IC50 with NCI-H226 cells [2] (Homo sapiens, NCI-H226, 144 h) is less than 200 nM.
In the assay with NCI-H226 cells [1] (setting [3]), `Cn1cnc(-c2cc(CN3CCNC3=O)ccc2Nc2ccc(C(F)(F)F)cc2)c1` [Compound 3, 1-(3-(1-methyl-1H-imidazol-4-yl)-4-((4-(trifluoromethyl)phenyl)amino)benzyl)imidazolidin-2-one] came in with an EC50 of less than 200 nM. In addition, in the assay with NCI-H226 cells [2] (Homo sapiens, NCI-H226, 144 h), the half-inhibitory concentration (IC50) was less than 200 nM.
